Data on 34 compounds can be found in patent US7524847B2, “Fused 1,3-dihydro-imidazole ring compounds” (Eisai R&D Management Co., Ltd., priority 2002, dated 2009).

Molecules are shown by their SMILES. Counter-ions that a name gives are not always drawn.

This experiment addresses T1, DPP-IV obtained from pig kidney (Sus scrofa, UniProt P22411).
T1 construct: DPP-IV obtained from pig kidney; from tissue; host or cells: pig kidney
Kind of experiment: Measurement of DPPIV-inhibiting activity (in vitro experiment). In kind it is biochemical. The following applies: DPP-IV from pig kidney 10 mU/mL, substrate Gly-Pro-p-nitroanilide 0.33 mM, 20 min preincubation, 20 min reaction, absorbance 405 nm. The procedure: DPP-IV obtained from pig kidney was dissolved in a reaction buffer (50 mM Tris-HCl pH7.4, 0.1% BSA) at 10 mU/mL, and 110 μL of this was used. 15 μL of the drug obtained from the aforementioned Examples was added, and this was incubated at room temperature for 20 minutes, and then 25 μL of a 2 mM solution of Gly-Pro-p-nitroanilide (final concentration 0.33 mM) was added to start the enzymatic reaction. The reaction time was 20 minutes, and 1 N phosphoric acid solution (25 μL) was added to stop the reaction.

T1 sequence (P22411 whole entry): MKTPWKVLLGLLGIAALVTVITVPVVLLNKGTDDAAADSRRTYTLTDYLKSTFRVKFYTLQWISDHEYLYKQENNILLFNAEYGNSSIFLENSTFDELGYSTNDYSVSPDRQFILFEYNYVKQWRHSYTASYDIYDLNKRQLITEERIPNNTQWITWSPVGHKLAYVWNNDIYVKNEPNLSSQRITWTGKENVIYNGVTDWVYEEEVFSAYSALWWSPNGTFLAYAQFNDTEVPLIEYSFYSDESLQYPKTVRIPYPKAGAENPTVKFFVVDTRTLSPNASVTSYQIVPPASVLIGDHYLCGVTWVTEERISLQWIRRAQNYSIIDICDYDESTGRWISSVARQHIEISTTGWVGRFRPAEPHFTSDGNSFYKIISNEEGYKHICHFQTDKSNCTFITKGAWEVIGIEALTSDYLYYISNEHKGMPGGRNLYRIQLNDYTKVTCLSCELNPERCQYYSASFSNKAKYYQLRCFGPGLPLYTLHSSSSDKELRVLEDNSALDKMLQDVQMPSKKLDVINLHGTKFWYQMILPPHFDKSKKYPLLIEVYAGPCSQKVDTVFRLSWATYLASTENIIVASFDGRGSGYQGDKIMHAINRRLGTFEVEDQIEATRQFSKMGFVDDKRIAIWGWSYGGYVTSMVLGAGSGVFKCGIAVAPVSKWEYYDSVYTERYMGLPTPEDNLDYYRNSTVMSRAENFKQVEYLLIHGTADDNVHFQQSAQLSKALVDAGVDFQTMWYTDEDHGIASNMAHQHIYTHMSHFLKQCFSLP

`C=Cc1ccc(-n2c(=O)n(CC#CC)c3c(N4CCNCC4)nc(OC)nc32)cc1` [Example 58, 7-(2-Butynyl)-2-methoxy-6-(piperazin-1-yl)-9-(4-vinyl-phenyl)-7,9-dihydropurin-8-one trifluoroacetic acid salt] yielded an IC50 of 15.6 nM.

Regarding `N#Cc1ccccc1Cn1c(=O)n(Cc2ccccc2)c2c(N3CCNCC3)nccc21` [Example 80, 2-(3-Benzyl-2-oxo-4-piperazin-1-yl-2,3-dihydroimidazo[4.5-c]pyridin-1-ylmethyl)benzonitrile], the IC50 was found to be 3010 nM.

Turning to `CC#CCn1c(=O)n(C)c2nc(NC)nc(N3CCNCC3)c21` [Example 5, 7-(2-Butynyl)-9-methyl-2-methylamino-6-(piperazin-1-yl)-7,9-dihydropurin-8-one trifluoroacetic acid salt], half-maximal inhibition (IC50) required 172 nM.

On to `CC#CCn1c(=O)n(Cc2ccc(C#N)cc2)c2ncnc(N3CCNCC3)c21` [Example 73, 4-[7-(2-Butynyl)-8-oxo-6-(piperazin-1-yl)-7,8-dihydropurin-9-ylmethyl]benzonitrile trifluoroacetic acid salt], for which the IC50 turned out to be 48.4 nM.

`CC#CCn1c(=O)n(C)c2ncnc(N3CCNCC3)c21` [Example 76, 7-(2-Butynyl)-9-methyl-6-(piperazin-1-yl)-7,9-dihydropurin-8-one trifluoroacetic acid] displayed an IC50 of 1060 nM.

Turning to `CC(C)=CCn1c(=O)n(C)c2ncnc(N3CCNCC3)c21` [Example 77, 9-Methyl-7-(3-methyl-2-butenyl)-6-(piperazin-1-yl)-7,9-dihydropurin-8-one trifluoroacetic acid salt], the IC50 worked out at 8130 nM.

As for `CC#CCn1c(=O)n(C)c2ccnc(N3CCNCC3)c21` [Example 82, 3-(2-Butynyl)-1-methyl-4-piperazin-1-yl-1,3-dihydroimidazo[4.5-c]pyridin-2-one], the IC50 came to 5230 nM.

Compound `CC#CCn1c(=O)[nH]c2nc(OC)nc(N3CCNCC3)c21` [Example 53, 7-(2-Butynyl)-2-methoxy-6-(piperazin-1-yl)-7,9-dihydropurin-8-one trifluoroacetic acid salt] displayed an IC50 of 1370 nM.

`CC#CCn1c(=O)n(Cc2ccccc2C#N)c2nc(Cl)nc(N3CCNCC3)c21` [Example 29, 2-[7-(2-Butynyl)-2-chloro-8-oxo-6-(piperazin-1-yl)-7,8-dihydropurin-9-ylmethyl]benzonitrile trifluoroacetic acid salt] returned an IC50 of 2.92 nM.

`CC#CCn1c(=O)n(CC(N)=O)c2ncnc(N3CCNCC3)c21` [Example 71, 2-[7-(2-Butynyl)-8-oxo-6-(piperazin-1-yl)-7,8-dihydropurin-9-yl]acetamide trifluoroacetic acid salt] yielded an IC50 of 260 nM.

Consider `CC=CCn1c(=O)n(C)c2nc(Cl)nc(N3CCNCC3)c21` [Example 20, 7-(2-Butenyl)-2-chloro-9-methyl-6-(piperazin-1-yl)-7,9-dihydropurin-8-one trifluoroacetic acid salt], for which the IC50 was found to be 642 nM.

Take `CC#CCn1c(=O)n(Cc2ccc(C#N)cc2)c2nc(OC)nc(N3CCNCC3)c21` [Example 49, 4-[7-(2-Butynyl)-2-methoxy-8-oxo-6-(piperazin-1-yl)-7,8-dihydropurin-9-ylmethyl]benzonitrile trifluoroacetic acid salt]: the midpoint of inhibition, the IC50, lay at 40 nM.

`CC#CCn1c(=O)n(CC(=O)O)c2nc(Cl)nc(N3CCNCC3)c21` [Example 31, [7-(2-Butynyl)-2-chloro-8-oxo-6-(piperazin-1-yl)-7,8-dihydropurin-9-yl]acetic acid trifluoroacetic acid salt] yielded an IC50 of 259 nM.

Consider `CC#CCn1c(=O)n(CCCC#N)c2nc(Cl)nc(N3CCNCC3)c21` [Example 37, 4-[7-(2-Butynyl)-2-chloro-8-oxo-6-(piperazin-1-yl)-7,8-dihydropurin-9-yl]butyronitrile trifluoroacetic acid], for which the IC50 is 149 nM.

In turn, `CC#CCn1c(=O)n(-c2ccsc2)c2nc(Cl)nc(N3CCNCC3)c21` [Example 45, 7-(2-Butynyl)-2-chloro-6-(piperazin-1-yl)-9-(thiophen-3-yl)-7,9-dihydropurin-8-one trifluoroacetic acid salt] registered an IC50 of 130 nM.

In the case of `CC#CCn1c(=O)n(-c2ccc(OC)cc2)c2nc(Cl)nc(N3CCNCC3)c21` [Example 43, 7-(2-Butynyl)-2-chloro-9-(4-methoxyphenyl)-6-(piperazin-1-yl)-7,9-dihydropurin-8-one trifluoroacetic acid salt], half-maximal inhibition (IC50) was put at 67.8 nM.

As for `CC#CCn1c(=O)n(CC2CC2)c2nc(Cl)nc(N3CCNCC3)c21` [Example 38, 7-(2-Butynyl)-2-chloro-9-cyclopropylmethyl-6-(piperazin-1-yl)-7,9-dihydropurin-8-one trifluoroacetic acid salt], the IC50 was 150 nM.

In the case of `CC#CCn1c(=O)n(CC(=O)OC)c2nc(Cl)nc(N3CCNCC3)c21` [Example 40, [7-(2-Butynyl)-2-chloro-8-oxo-6-(piperazin-1-yl)-7,8-dihydropurin-9-yl]acetic acid methyl ester trifluoroacetic acid salt], the IC50 came out at 89.6 nM.

`CC#CCn1c(=O)n(Cc2ccccc2)c2nc(Cl)nc(N3CCNCC3)c21` [Example 36, 9-Benzyl-7-(2-butynyl)-2-chloro-6-(piperazin-1-yl)-7,9-dihydropurin-8-one trifluoroacetic acid salt] gave an IC50 of 80.7 nM.

For `CC#CCn1c(=O)n(C)c2c(Oc3ccccc3C(N)=O)cnc(N3CCNCC3)c21` [Example 83, 2-[3-(2-Butynyl)-1-methyl-2-oxo-4-piperazin-1-yl-2,3-dihydro-1H-imidazo[4.5-c]pyridin-7-yloxy]-benzamide trifluoroacetic acid salt], it took 1130 nM to reach half-maximal inhibition (IC50).

In turn, `CC#CCn1c(=O)n(C)c2nc(OCc3ccccc3)nc(N3CCNCC3)c21` [Example 11, 2-Benzyloxy-7-(2-butynyl)-9-methyl-6-(piperazin-1-yl)-7,9-dihydropurin-8-one trifluoroacetic acid salt] registered an IC50 of 179 nM.

On to `CC#CCn1c(=O)n(C)c2nc(Oc3ccccc3C(N)=O)nc(N3CCNCC3)c21` [Example 14, 2-[7-(2-Butynyl)-9-methyl-8-oxo-6-(piperazin-1-yl)-8,9-dihydro-7H-purin-2-yloxy]benzamide trifluoroacetic acid salt], for which the IC50 worked out at 124 nM.

With `CC#CCn1c(=O)n(C)c2nc(N(C)C)nc(N3CCNCC3)c21` [Example 4, 7-(2-Butynyl)-2-dimethylamino-9-methyl-6-(piperazin-1-yl)-7,9-dihydropurin-8-one trifluoroacetic acid salt], it took 334 nM to reach half-maximal inhibition (IC50).

The compound `CC#CCn1c(=O)n(CC(N)=O)c2nc(Cl)nc(N3CCNCC3)c21` [Example 33, 2-[7-(2-Butynyl)-2-chloro-8-oxo-6-(piperazin-1-yl)-7,8-dihydropurin-9-yl]acetamide trifluoroacetic acid salt] had an IC50 of 163 nM.

With `C#CCn1c(=O)n(CC#CC)c2c(N3CCNCC3)ncnc21` [Example 70, 7-(2-Butynyl)-6-(piperazin-1-yl)-9-(2-propynyl)-7,9-dihydropurin-8-one trifluoroacetic acid salt], the IC50 stood at 94.8 nM.

On to `CC#CCn1c(=O)n(-c2ccc(=O)n(C)c2)c2ncnc(N3CCNCC3)c21` [Example 68, 7-(2-Butynyl)-9-(1-methyl-6-oxo-1,6-dihydro-pyridin-3-yl)-6-(piperazin-1-yl)-7,9-dihydropurin-8-one trifluoroacetic acid salt], for which the IC50 is 187 nM.

In the case of `CC#CCn1c(=O)n(CC2CC2)c2ncnc(N3CCNCC3)c21` [Example 72, 7-(2-Butynyl)-9-cyclopropylmethyl-6-(piperazin-1-yl)-7,9-dihydropurin-8-one trifluoroacetic acid salt], half-maximal inhibition (IC50) required 141 nM.

For the compound `CC#CCn1c(=O)n(-c2cccnc2)c2nc(OC)nc(N3CCNCC3)c21` [Example 55, 7-(2-Butynyl)-2-methoxy-6-(piperazin-1-yl)-9-(pyridin-3-yl)-7,9-dihydropurin-8-one trifluoroacetic acid salt], the IC50 came to 37.2 nM.

As to `CC(C)=CCn1c(=O)n(C)c2nc(Cl)nc(N3CCNCC3)c21` [Example 19, 2-Chloro-9-methyl-7-(3-methyl-2-butenyl)-6-(piperazin-1-yl)-7,9-dihydropurin-8-one trifluoroacetic acid salt], half-maximal inhibition (IC50) required 5410 nM.

As to `CC#CCn1c(=S)n(C)c2ncnc(N3CCNCC3)c21` [Example 84, 7-(2-Butynyl)-9-methyl-6-(piperazin-1-yl)-7,9-dihydropurin-8-thione trifluoroacetic acid salt], the IC50 was found to be 13600 nM.

The compound `CC#CCn1c(=O)n(Cc2ccccc2C#N)c2ncnc(N3CCNCC3)c21` [Example 79, 2-[7-(2-Butynyl)-8-oxo-6-piperazin-1-yl-7,8-dihydropurin-9-ylmethyl]benzonitrile trifluoroacetic acid salt] gave an IC50 of 4.2 nM.

`C=CCn1c(=O)n(CC#CC)c2c(N3CCNCC3)nc(Oc3ccccc3C(N)=O)nc21` [Example 60, 2-[9-Allyl-7-(2-butynyl)-8-oxo-6-(piperazin-1-yl)-8,9-dihydro-7H-purin-2-yloxy]benzamide trifluoroacetic acid salt] came in with an IC50 of 119 nM.

Take `CC#CCOc1nc(N2CCNCC2)c2c(n1)n(C)c(=O)n2CC#CC` [Example 16, 7-(2-Butynyl)-2-(2-butynyloxy)-9-methyl-6-(piperazin-1-yl)-7,9-dihydropurin-8-one trifluoroacetic acid salt]: 364 nM corresponded to half-maximal inhibition (IC50).

Regarding `Cn1c(=O)n(Cc2ccccc2)c2c(N3CCNCC3)nc(Cl)nc21` [Example 21, 7-Benzyl-2-chloro-9-methyl-6-(piperazin-1-yl)-7,9-dihydropurin-8-one trifluoroacetic acid salt], the IC50 is 2450 nM.
